# Literature values, collected in PMC11181328 (Journal of Medicinal Chemistry, 2024).
# Experiments:
# [1] = same conditions; cited from earlier work
# male Swiss Webster mice [2] = details: 0.1 mg/kg; cited from earlier work
# hERG = hERG (Homo sapiens, UniProt Q12809); details: read-out: hERG IC50; cited from earlier work
# DOR = biological target: T1, DOR (Homo sapiens, UniProt P41143); details: read-out: radioligand binding affinity (Ki, nM) DOR; [3H]diprenorphine; cited from earlier work
# T1 construct: expressed in transfected cells; membrane homogenate
# male Swiss Webster mice [3] = details: warm-water tail immersion; cited from earlier work
# T1 sequence (P41143 whole entry): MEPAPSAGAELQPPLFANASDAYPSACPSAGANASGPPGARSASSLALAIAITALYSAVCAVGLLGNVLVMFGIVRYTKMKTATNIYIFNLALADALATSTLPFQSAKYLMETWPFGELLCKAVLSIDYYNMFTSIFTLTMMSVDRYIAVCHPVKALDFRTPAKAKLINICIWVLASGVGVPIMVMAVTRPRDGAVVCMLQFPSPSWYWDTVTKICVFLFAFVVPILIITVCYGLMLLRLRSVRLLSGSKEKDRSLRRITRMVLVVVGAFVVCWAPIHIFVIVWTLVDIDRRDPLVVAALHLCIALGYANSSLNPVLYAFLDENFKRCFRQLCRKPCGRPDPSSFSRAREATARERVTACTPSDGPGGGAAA
# Sequence of hERG (Q12809 whole entry): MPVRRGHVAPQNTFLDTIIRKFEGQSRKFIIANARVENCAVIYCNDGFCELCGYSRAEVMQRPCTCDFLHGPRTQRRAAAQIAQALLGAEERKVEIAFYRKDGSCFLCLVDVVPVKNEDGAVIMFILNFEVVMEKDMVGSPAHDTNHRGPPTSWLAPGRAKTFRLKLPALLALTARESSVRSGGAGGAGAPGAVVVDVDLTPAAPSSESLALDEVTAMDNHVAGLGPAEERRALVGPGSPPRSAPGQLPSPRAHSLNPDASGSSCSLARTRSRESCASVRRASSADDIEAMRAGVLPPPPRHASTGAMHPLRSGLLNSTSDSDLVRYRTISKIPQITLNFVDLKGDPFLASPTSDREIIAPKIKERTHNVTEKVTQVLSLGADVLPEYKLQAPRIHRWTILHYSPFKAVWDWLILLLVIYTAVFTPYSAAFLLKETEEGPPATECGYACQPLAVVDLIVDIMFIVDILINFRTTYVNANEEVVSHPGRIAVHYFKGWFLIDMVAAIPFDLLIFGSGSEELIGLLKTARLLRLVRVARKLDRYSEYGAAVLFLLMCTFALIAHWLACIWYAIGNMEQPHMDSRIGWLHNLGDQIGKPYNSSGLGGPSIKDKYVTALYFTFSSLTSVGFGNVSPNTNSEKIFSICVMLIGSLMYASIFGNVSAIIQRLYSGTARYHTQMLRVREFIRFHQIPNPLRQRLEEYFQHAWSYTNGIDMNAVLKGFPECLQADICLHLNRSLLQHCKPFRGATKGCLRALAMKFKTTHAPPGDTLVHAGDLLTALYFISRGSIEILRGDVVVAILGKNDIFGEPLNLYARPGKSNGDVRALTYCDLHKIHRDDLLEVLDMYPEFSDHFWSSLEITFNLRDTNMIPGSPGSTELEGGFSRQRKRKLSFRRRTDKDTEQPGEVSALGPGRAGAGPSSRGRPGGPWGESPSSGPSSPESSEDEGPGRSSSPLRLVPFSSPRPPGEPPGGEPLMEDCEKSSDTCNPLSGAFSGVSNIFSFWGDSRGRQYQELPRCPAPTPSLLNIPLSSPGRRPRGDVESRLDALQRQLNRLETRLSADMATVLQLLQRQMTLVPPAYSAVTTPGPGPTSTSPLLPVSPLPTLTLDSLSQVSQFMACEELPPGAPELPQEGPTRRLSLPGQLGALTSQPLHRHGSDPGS
structure (smiles),measurement,setting,value
CN(C(=O)/C=C/c1ccoc1)[C@H]1CC[C@@]2(O)[C@H]3Cc4ccc(O)c5c4[C@@]2(CCN3CC2CC2)[C@H]1O5.Cl [NMF],half-life in rat liver S9 fraction,[1],10 min
same,duration of antinociceptive effects,male Swiss Webster mice [2],1 h
same,IC50,hERG,6.7 µM
same,Ki,DOR,0.64 ± 0.11 nM
same,potency ED50 [95% CI] mg/kg,male Swiss Webster mice [3],0.037 [0.014–0.096] mg/kg
